{"source": "paper PMC5618191", "about": "(Toxins, 2017)", "key": {"[1]": {"test_system": "GH354 cervix adenocarcinoma cells", "assay": "Cell viability assay (MTT, 72 h)", "format": "cell-based, human", "conditions": "GH354, sparse (5–10% confluency)", "procedure": "(§1) For the cell lines KB-3-1 and SW480 2 × 10^3 cells, for NIH/3T3, CT-26, HaCaT, and GH354 cells 3 × 10^3 cells and for ME-180 and SW620 cells 4 × 10^3 cells were seeded into 96-well pates and incubated at 37 °C (5% CO2) overnight. […] For higher cell confluency, NIH/3T3, CT-26, HaCaT, KB-3-1, and SW480 cells were grown to a cell density of approximately 50–60% before treatment. […] The percentage of viable cells was detected after incubation with 3-(4,5-dimethylthiazol-2-yl)-2,5-diphenyltetrazolium bromide (MTT) at 37 °C for 1–4 h, depending on the cell line, according to the user manual (EZ4U, Biomedica, Vienna, Austria). […] All experiments were conducted using full-growth media with 10% FBS in triplicate and repeated three times. The cell confluency was analyzed by Image J 1.50i (NIH, New York, NY, USA)."}, "[2]": {"test_system": "HaCaT non-malignant keratinocytes", "assay": "Cell viability assay (MTT, 72 h)", "format": "cell-based, human", "procedure": "as §1"}, "[3]": {"test_system": "KB-3-1 cervix carcinoma cells", "assay": "Cell viability assay (MTT, 72 h)", "format": "cell-based, human", "procedure": "as §1"}, "[4]": {"test_system": "ME-180 cervix metastasis cells", "assay": "Cell viability assay (MTT, 72 h)", "format": "cell-based, human", "conditions": "ME-180, sparse (5–10% confluency)", "procedure": "as §1"}, "[5]": {"test_system": "SW480 colorectal adenocarcinoma cells", "assay": "Cell viability assay (MTT, 72 h)", "format": "cell-based, human", "procedure": "as §1"}, "[6]": {"test_system": "SW620 colon metastasis cells", "assay": "Cell viability assay (MTT, 72 h)", "format": "cell-based, human", "procedure": "as §1"}, "[7]": {"test_system": "KB-3-1 cells", "assay": "Cell cycle analysis (PI staining, flow cytometry)", "format": "cell-based, human", "conditions": "KB-3-1, subtoxic concentrations", "procedure": "1. Supplementary Materials and Methods\nKB-3-1 cells (3.5x105/per well) were seeded into 6-well plates and treated the next day with the […]\nAfter incubation at 37°C for another 24 h, cells were trypsinized, centrifuged (8 min, 300g, RT) and fixed in 70% ethanol and stored at -20°C overnight.\nFixed cells were centrifuged (1 min, 6000g) and resuspended in 100 µL of 0.9% NaCl. RNA was digested with 0.2 mg/mL of RNase for 30 min at 37°C. DNA was stained with propidium iodide (PI, 0.01 mg/mL, Sigma-Aldrich St. Louis, Missouri, USA) for 30 min at 4°C in the dark. Afterwards, cells were analyzed by flow cytometry using FACS Calibur (BD Biosciences, Franklin Lakes, New Jersey, USA) as described previously. CellQuest Pro software (BD Biosciences) was utilized to determine percentages of the respective cell cycle phases. […]\nThe following primary […]\nantibodies specific for the following targets were diluted 1:1000 in TBST/3% BSA (w/v): PARP, Bak, Bax, Bim, Bcl-xL (polyclonal, Cell Signaling Technology, Beverly, MA, USA), caspase 9, cl. caspase 9 (monoclonal, Cell Signaling Technology) and β-actin (monoclonal, Clone AC-15, Sigma-Aldrich).\nSecondary horseradish peroxidase-labeled antibodies (goat anti-rabbit or anti-mouse, Santa Cruz Biotechnology, Dallas, Texas, TX, USA) were diluted 1:10,000 in TBST/1% BSA. […]"}, "[8]": {"test_system": "KB-3-1 cells", "set-up": "method as in PMID 19517454", "conditions": "two-year in vitro selection process; cited from earlier work"}, "[9]": {"conditions": "KB-3-1, sparse (5–10% confluency)"}, "[10]": {"conditions": "SW480, sparse (5–10% confluency)"}, "[11]": {"conditions": "SW620, sparse (5–10% confluency), 72 h"}}, "note": "Where two headings read alike, the source gives them in different places.", "data": [{"substance": "beauvericin", "values": [{"measurement": "Mean IC25 ± SD", "setting": "[1]", "result": "2.2 ± 0.6", "unit": "µM"}, {"measurement": "Mean IC75 ± SD", "setting": "[1]", "result": "6.3 ± 2.1", "unit": "µM"}, {"measurement": "IC50", "setting": "[1]; read-out: Mean IC50 ± SD", "result": "3.6 ± 1.2", "unit": "µM"}, {"measurement": "IC50", "setting": "[2]; higher density (50–60% confluency), read-out: IC50 value", "result": "> 10", "unit": "µM"}, {"measurement": "Mean IC25 ± SD", "setting": "[2]; sparse (5–10% confluency)", "result": "2.7 ± 0.2", "unit": "µM"}, {"measurement": "Mean IC75 ± SD", "setting": "[2]; sparse (5–10% confluency)", "result": "4.8 ± 0.7", "unit": "µM"}, {"measurement": "IC50", "setting": "[2]; sparse (5–10% confluency), read-out: Mean IC50 ± SD", "result": "3.9 ± 0.4", "unit": "µM"}, {"measurement": "IC50", "setting": "[3]; KB-3-1, higher density (50–60% confluency), read-out: IC50 value", "result": 4.3, "unit": "µM"}, {"measurement": "Mean IC25 ± SD", "setting": "[3]; [9]", "result": "2.6 ± 0.9", "unit": "µM"}, {"measurement": "Mean IC75 ± SD", "setting": "[3]; [9]", "result": "3.6 ± 0.9", "unit": "µM"}, {"measurement": "IC50", "setting": "[3]; KB-3-1, sparse (5–10% confluency), read-out: Mean IC50 ± SD", "result": "3.1 ± 0.7", "unit": "µM"}, {"measurement": "Mean IC25 ± SD", "setting": "[4]", "result": "1.6 ± 0.8", "unit": "µM"}, {"measurement": "Mean IC75 ± SD", "setting": "[4]", "result": "4.5 ± 1.2", "unit": "µM"}, {"measurement": "IC50", "setting": "[4]; read-out: Mean IC50 ± SD", "result": "2.2 ± 0.7", "unit": "µM"}, {"measurement": "IC50", "setting": "[5]; SW480, higher density (50–60% confluency), read-out: IC50 value", "result": 3.7, "unit": "µM"}, {"measurement": "Mean IC25 ± SD", "setting": "[5]; [10]", "result": "2.1 ± 1.3", "unit": "µM"}, {"measurement": "Mean IC75 ± SD", "setting": "[5]; [10]", "result": "4.2 ± 2.7", "unit": "µM"}, {"measurement": "IC50", "setting": "[5]; SW480, sparse (5–10% confluency), read-out: Mean IC50 ± SD", "result": "3.3 ± 0.3", "unit": "µM"}, {"measurement": "Mean IC25 ± SD", "setting": "[6]; [11]", "result": "0.3 ± 0.02", "unit": "µM"}, {"measurement": "Mean IC75 ± SD", "setting": "[6]; [11]", "result": "1.9 ± 0.2", "unit": "µM"}, {"measurement": "IC50", "setting": "[6]; SW620, sparse (5–10% confluency), 72 h, read-out: Mean IC50 ± SD", "result": "0.7 ± 0.1", "unit": "µM"}, {"measurement": "IC50 of SW620 lower as compared to SW480", "setting": "[6]; sparse conditions", "result": 4.7, "unit": "fold"}, {"measurement": "IC50 of SW620 lower than normal HaCaT cells", "setting": "[6]; sparse conditions", "result": 5.6, "unit": "fold"}, {"measurement": "Cell cycle effect", "setting": "[7]", "result": "cell cycle arrest in the G0/G1-phase"}, {"measurement": "Acquisition of resistance", "setting": "[8]", "result": "did not induce beauvericin-unresponsiveness"}]}]}
